Here are results for 1 compound from patent US20040148991A1, “Method and apparatus for dissolving urea” (priority 2003, published 2004).

Each structure is given as a SMILES string.

A short description of this data set: Urea dissolution time in water at 50/50 wt/wt urea/water concentration. The note with it: for dissolution time faster than control test: versus control 12 minutes. It is filed as physicochemical. As for the experimental part: The next step of the method of the present invention comprises mixing the urea prills and the water so as to form a mixture. After the mixture is formed, the mixture of urea and water is then allowed to stand for an amount of time sufficient to allow the temperature of the mixture to reach a predetermined temperature. In a preferred embodiment, the predetermined temperature is between about 19° C. and 24° C., and more preferably, about 23° C. The amount of time required for the temperature of the mixture to reach the predetermined temperature depends upon the amount of mixture in mixing container 12. During this time period in which the mixture is allowed to stand, the temperature of the mixture is monitored with temperature sensor 20. When the temperature of the mixture reaches the predetermined temperature, mixing of the urea/water mixture is resumed and continues until the urea completely dissolves in the water. The time for urea dissolution is measured from the moment the mixing resumes to the point in time when the urea becomes completely dissolved in the water. The solution is outputted from mixing container 12 via outlet 14.
A series of tests were conducted in order to determine the urea dissolution time when various amounts of water were initially added to the urea and wherein additional amounts of water were subsequently added to attain the 50/50 wt/wt urea/water concentration. A control test was first conducted in order to obtain reference data. About 40 grams of urea prills were mixed with an equal amount of water, i.e. 40 grams (or milliliters). The mixture was not allowed to stand for any amount of time. Thus, the mixing step began as soon as 40 grams of urea and 40 grams of water were added to mixing container 12. The time for the urea to completely dissolve was about twelve (12) minutes and is indicated by numeral 100 in the curve of FIG. 2.
In the first test, about 40 grams of urea and 10 grams of water were deposited into mixing container 12. The mixture was then mixed or stirred, and allowed to stand until the temperature of the mixture reached about room temperature or about 23° C. Next, an amount of water necessary to achieve a urea/water concentration of 50/50 wt/wt was added to the mixture. Since the initial amount of water was 10 grams , 30 grams of water were added to the mixture to achieve the desired 50/50 wt/wt concentration. The urea and water were mixed again. The urea completely dissolved in eight (8) minutes after the 50/50 wt/wt urea/water concentration was achieved. This is indicated by numeral 102 on the curve in FIG. 2. The dissolution time was about 33% faster than the control test dissolution time of twelve (12) minutes.
In the next test, about 40 grams of urea and 15 grams of water were deposited into mixing container 12. The mixture was then mixed or stirred, and allowed to stand until the temperature of the mixture reached about room temperature or about 23° C. Next, an amount of water necessary to achieve a 50/50 wt/wt urea/water concentration was added to the mixture. Since the initial amount of water was 15 grams, 25 grams of water were added to the mixture to achieve the desired 50/50 wt/wt urea/water concentration. The urea and water were mixed again. The urea completely dissolved in seven (7) minutes after the 50/50 wt/wt urea/water concentration was achieved. This is indicated by numeral 104 on the curve in FIG. 2. The dissolution time was about 42% faster than the control test dissolution time of twelve (12) minutes.
In the next test, about 40 grams of urea and 20 grams of water were deposited into mixing container 12. The mixture was then mixed or stirred, and allowed to stand until the temperature of the mixture reached about room temperature or about 23° C. Next, an amount of water necessary to achieve a urea/water concentration of 50/50 wt/wt was added to the mixture. […]

Regarding `NC(N)=O` [urea], the “dissolution time faster than control test” value reads like this: (Test 1: 10 g water initially) “about 33%”; (Test 2: 15 g water initially) “about 42%”; (Test 3: 20 g water initially) “about 58%”; (Test 4: 25 g water initially) “about 67%”; (Test 5: 40 g water initially) “about 75%”. Moreover, the “time for the urea to completely dissolve” value (Test 1: 40 g urea + 10 g water initially, stand until about 23° C., then 30 g water added to 50/50 wt/wt) was 8 min; the “time for the urea to completely dissolve” value (Test 2: 40 g urea + 15 g water initially, stand until about 23° C., then 25 g water added to 50/50 wt/wt) was found to be 7 min; the “time for the urea to completely dissolve” value (Test 3: 40 g urea + 20 g water initially, stand until about 23° C., then 20 g water added to 50/50 wt/wt) was determined as 5 min; the “time for the urea to completely dissolve” value (Test 4: 40 g urea + 25 g water initially, stand until about 23° C., then 15 g water added to 50/50 wt/wt) turned out to be 4 min; the “time for the urea to completely dissolve” value (Test 5: 40 g urea + 40 g water, mixed, stand until about 23° C., mixed again) turned out to be 3 min; the “time for the urea to completely dissolve” value (control test: 40 g urea prills + 40 g water, mixture not allowed to stand) was approximately 12 min.
